In general, melting point refers to the temperature of the solid-liquid transition. Broadly, the inhibition is the change of the read-out against control, counted positive when it falls. As a reminder, the pIC50 is −log10 of the IC50, conventionally taken in molar units. By pKi is commonly meant the negative decadic logarithm of the Ki, by convention in mol/L.

Experimental findings from patent publication US7332506B2, “Substituted-3-indolyl-4-piperidino-alkyl heterocycles for the treatment of depression” (Wyeth, priority 2002, dated 2008) are described below.

For series [1], the target named is T1, human 5-HT1A receptors (Homo sapiens, UniProt P08908).
T1 construct: expressed in transfected cells; host or cells: CHO cells
T1 sequence (P08908 1-422): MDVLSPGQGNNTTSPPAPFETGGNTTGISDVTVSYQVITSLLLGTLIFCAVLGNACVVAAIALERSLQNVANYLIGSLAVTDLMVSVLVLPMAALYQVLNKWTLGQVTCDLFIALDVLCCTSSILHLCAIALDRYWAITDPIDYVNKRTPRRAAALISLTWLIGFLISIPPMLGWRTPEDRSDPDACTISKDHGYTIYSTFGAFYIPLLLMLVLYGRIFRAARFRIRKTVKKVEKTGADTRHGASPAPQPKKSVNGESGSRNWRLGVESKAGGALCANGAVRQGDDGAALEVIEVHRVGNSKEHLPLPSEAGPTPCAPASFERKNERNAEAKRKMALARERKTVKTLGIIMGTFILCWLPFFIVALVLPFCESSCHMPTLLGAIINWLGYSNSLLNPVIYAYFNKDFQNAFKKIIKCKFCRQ
Put plainly: [3H] 8-OH-DPAT displacement from the 5-HT1A serotonin receptor (CHO cells). In kind it is binding. The following applies: @ 1000 nM; printed in the 5-HT1A Ki column. An excerpt: High affinity for the serotonin 5-HT1A receptor was established by testing the claimed compound's ability to displace [^3H] 8-OH-DPAT (dipropylaminotetralin) from the 5-HT1A serotonin receptor following a modification of the procedure of Hall et al., J. Neurochem. 44, 1685 (1985) which utilizes CHO cells stably transfected with human 5-HT1A receptors.

Series [2] has as its target T2, Human 5-HT Transporter (Homo sapiens, UniProt P31645).
T2 construct: endogenous in cells; host or cells: Jar cells (human carcinoma), treated with staurosporine
The series is described as follows: Inhibition of 3H-5-HT Uptake by cells Possessing the Human 5-HT Transporter (HC 5HT Transporter). In kind it is cell-based. The following applies: Jar cells, 3H-5-HT uptake; read-out: HC 5HT Transporter IC50. On the procedure: [Staurosporine greatly increases the expression of the 5-HT-transporter.] On the day of assay, vehicle, excess of fluoxetine, or test compound is added to various wells on the plate. All wells then receive ^3H-5-HT and are incubated at 37° C. for 5 min. The wells are then washed with ice cold 50 mM Tris HCl (pH 7.4) buffer and aspirated to remove free ^3H-5-HT. 25 μl of 0.25 M NaOH is then added to each well to lyse the cells and 75 μl scintillation cocktail (Microscint™ 20) added prior to quantitation on a Packard TopCount machine. Tubes with vehicle represent total possible uptake, radioactivity counted in tubes with fluoxetine represent nonspecific binding/uptake and is subtracted from the total possible uptake to give total possible specific uptake. This nonspecific binding (usual low in number) is then subtracted from the counts obtained in wells with various test compounds (or different concentrations of test drug) to give specific uptake in the presence of drug. Specific uptake is then expressed as a % of control values and is analyzed using nonlinear regression analysis (Prizm) to determine IC50 values. If the compound is active at inhibiting 5-HT uptake, its counts will be close to that obtained with fluoxetine.

Series [3] addresses T3, 5-HT transporter (Rattus norvegicus, UniProt P31652).
T3 construct: from tissue; host or cells: rat frontal cortex membranes (male Sprague-Dawley rats)
The series is described as follows: Rat Brain 3H-Paroxetine Binding Assay (RB 5HT Transporter). Here is the method: Rat Brain ^3H-Paroxetine Binding Assay (RB 5HT Transporter):
This assay was used to determine a compound's affinity of the 5-HT transporter.
A protocol similar to that used by Cheetham et. al. (Neuropharmacol. 1993, 32, 737) was used. Briefly, frontal cortical membranes prepared from male S.D. rats were incubated with ^3H-parxetine (0.1 nM) for 60 min. at 25° C. All tubes also contained either vehicle, test compound (one to eight concentrations), or a saturating concentration of fluoxetine (10 μM) to define […]. All reactions are terminated by the addition of ice cold Tris buffer followed by rapid filtration using a Tom Tech filtration device to separate bound from free ^3H-paroxetine. Bound radioactivity was quantitated using a Wallac 1205 Beta Plate® counter. Nonlinear regression analysis was used to determine IC50 values which were converted to Ki values using the method of Cheng and Prusoff (Biochem. Pharmacol. 1973, 22, 3099);

pIC50, pKi: −log10 of the molar value. Like-named read-outs stand apart in the source and are kept apart here.

T2 sequence (P31645 whole entry): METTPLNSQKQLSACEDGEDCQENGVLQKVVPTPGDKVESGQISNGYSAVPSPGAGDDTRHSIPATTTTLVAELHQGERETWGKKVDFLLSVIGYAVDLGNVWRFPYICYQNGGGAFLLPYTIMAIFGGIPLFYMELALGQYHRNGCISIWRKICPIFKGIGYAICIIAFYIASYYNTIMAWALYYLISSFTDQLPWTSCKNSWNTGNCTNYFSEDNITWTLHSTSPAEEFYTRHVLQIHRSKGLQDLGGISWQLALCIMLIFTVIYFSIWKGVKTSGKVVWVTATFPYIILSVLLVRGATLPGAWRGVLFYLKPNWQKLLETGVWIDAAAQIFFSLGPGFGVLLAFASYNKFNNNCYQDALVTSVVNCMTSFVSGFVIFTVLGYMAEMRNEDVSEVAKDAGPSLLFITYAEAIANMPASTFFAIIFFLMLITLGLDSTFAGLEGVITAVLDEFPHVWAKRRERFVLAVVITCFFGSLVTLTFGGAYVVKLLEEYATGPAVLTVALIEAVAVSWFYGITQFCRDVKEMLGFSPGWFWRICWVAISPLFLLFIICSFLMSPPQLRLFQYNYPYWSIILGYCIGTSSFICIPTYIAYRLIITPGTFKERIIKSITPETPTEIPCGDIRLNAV
T3 sequence (P31652 whole entry): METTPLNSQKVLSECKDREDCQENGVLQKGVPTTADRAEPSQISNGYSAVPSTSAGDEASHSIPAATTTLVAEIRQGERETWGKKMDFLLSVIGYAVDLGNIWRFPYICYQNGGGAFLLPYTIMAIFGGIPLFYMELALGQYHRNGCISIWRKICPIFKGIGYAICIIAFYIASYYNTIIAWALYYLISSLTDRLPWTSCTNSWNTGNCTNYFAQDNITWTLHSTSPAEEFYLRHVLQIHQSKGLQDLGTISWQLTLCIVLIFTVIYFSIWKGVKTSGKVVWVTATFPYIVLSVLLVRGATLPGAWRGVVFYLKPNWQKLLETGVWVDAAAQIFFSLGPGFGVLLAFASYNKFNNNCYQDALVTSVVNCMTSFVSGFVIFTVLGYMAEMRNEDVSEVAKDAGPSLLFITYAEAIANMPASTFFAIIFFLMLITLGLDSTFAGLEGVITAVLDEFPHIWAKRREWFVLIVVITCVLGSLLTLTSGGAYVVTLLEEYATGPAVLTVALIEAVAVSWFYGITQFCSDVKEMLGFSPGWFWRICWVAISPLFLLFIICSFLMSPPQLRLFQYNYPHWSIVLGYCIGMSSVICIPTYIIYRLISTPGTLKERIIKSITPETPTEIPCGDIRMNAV

In turn, `Cn1cc(C2CCN(CCn3cnc4ccccc4c3=O)CC2)c2ccccc21` [Example 14, 3-{2-[4-(1-methyl-1H-indol-3-yl)-1-piperidinyl]ethyl}4-(3H)-quinazolinone] gave a melting point of 78 °C. Moreover, the inhibition at 1 µM in series [1] was 43%. Also, in series [2], the pIC50 is 5.83. Besides, the negative-log Ki (pKi) in series [3] (rat frontal cortical membranes, 3H-paroxetine, read-out: RB 5HT Transporter Ki) is 6.94.
For the compound `O=c1c2cc(F)ccc2ncn1CCN1CC=C(c2c[nH]c3ccccc23)CC1` [Example 15, 6-fluoro-3-{2-[4-(1H-indol-3-yl)-3,6-dihydro-1(2H)-pyridinyl]ethyl}-4(3H)-quinazolinone], the melting point is 138 °C. The inhibition at 1 µM in series [1] was determined as 44%. Further, the pIC50 in series [2] is 6.80. For the same compound, the negative-log Ki (pKi) in series [3] is 7.72.
